The results in this text go back to patent US12350458B2, “Apparatus and method for skin treatment” (Brain Tunnelgenix Technologies Corp., priority 2015, dated 2025).

Each structure is given as a SMILES string.

The procedure of this data set: Referring to FIG. 1, an epidermis 1506 and a dermis 1508 are collectively referred to as a superficial skin layer 1520 herein. An area of a skin 1500 where cold is applied is referred to herein as a cold site. […] Skin blood flow rate in both the cold site and normothermic site was measured using a laser Doppler perfusion imaging system. Studies also compared plasma concentration of drug 1510 in subjects at the cold site and the normothermic site. […] In one exemplary experiment skin blood flow was measured 15 min after application of cold, and every 15 min thereafter for a total of 3 hours.

For `O=C(O)c1ccccc1O` [salicylic acid], the “concentration of drug in superficial skin layer of cold site, higher compared to normothermic site” value is listed as “about 80%”. For the same compound, where the note is “human, in vivo”, the “plasma concentration at cold site, lower compared to normothermic site” value was “about 60%” and the “plasma concentration, cold site” value is recorded as “about 45 nmol/ml”.
